Structures are written as SMILES. Bounds are passed on as bounds.

`COC(=O)c1cnn(-c2cc(Cl)cc(Cl)c2)c1C(N)=O`: the melting point lay in the range of 220 to 222 °C.
The compound `O=C(CNc1ccc2[nH]c(=O)oc2c1)N1CCC(Cc2ccc(F)cc2)CC1` showed a melting point of 202 to 205 °C.
Under `CCOCc1nc2c(N)nc3ccc(OCc4cccnc4)cc3c2n1CC(C)C` stands 204 to 206 °C; under `COc1ccc(N(C)c2nc(N)nc3[nH]c4cccc(Cl)c4c23)cc1`, 163 to 164 °C.
Under `COCCOC(=O)C1CCCCC1C(=O)Nc1cc(OC(C)C)c(Cl)cc1F` (configuration not stated) stands 58 to 60 °C; under `CC(C)C1(C)NC(c2ncccc2C#N)=NC1=O` (configuration not stated), 144 to 148 °C; under `COC(=O)[C@H]1CC[C@H](NC(=O)c2cc(-c3ccc(C#N)cc3)nn(Cc3ccccc3)c2=O)CC1`, 217 to 220 °C.
`COC(=O)C=C(Nc1cc(CCCl)c([N+](=O)[O-])cc1OCc1ccccc1)C(F)(F)F` had a melting point of 105 to 110 °C.
In turn, `CON=Cc1ccc2c(c1)c1c(n2Cc2cccc(F)c2)CCC(NC(=O)C(C)C)C1` (configuration not stated) displayed a melting point of 180 to 182 °C.
Consider `CC(C)(C)OC(=O)N[C@@H](Cc1ccccc1)C(=O)CCC(=O)O`, for which the melting point fell in the range of 108 to 110 °C.
Compound `CCCCN1CC2CN(S(=O)(=O)c3ccc(NC(=O)c4ccc(C#N)cc4)cc3)CC(C1)C2(C)C` showed a melting point of 145 °C.
`Cc1ccccc1CC(C(=O)Nc1nc2cc(Cl)ccc2o1)c1ccc(S(C)(=O)=O)cc1` (configuration not stated): the melting point lay within 184 to 185 °C.
On to `CS(=O)(=O)c1cc([N+](=O)[O-])cc(O)c1O`, for which the melting point fell in the range of 221 to 224 °C.
Compound `CC1CC(=O)NN=C1c1ccc(N)c([N+](=O)[O-])c1` (configuration not stated) had a melting point of 234 to 238 °C.
Compound `O=C(O)Cc1ccc(C#CC#Cc2ccc(CC(=O)O)cc2)cc1` returned a melting point of 91 °C.
As for `Nc1ccncc1Nc1ccc2[nH]ccc2c1`, the figure is 83 to 90 °C; as for `COCC(=O)Nc1cccc(C2(C3CCN(C(=O)c4ccc(C(=O)OC)cc4)CC3)N=C(N)N(C)C2=O)c1` (configuration not stated), 161 to 163 °C.
In turn, `O=c1n(-c2ccc(Cl)c(Cl)c2)c(=O)n(SC(Cl)(Cl)Cl)n1SC(Cl)(Cl)Cl` showed a melting point of 167 °C.
`CCc1noc(C)c1-c1[nH]c2ccccc2c1CC(=O)O`: the melting point lay within 194 to 197 °C.
`O=[N+]([O-])C=C(NCc1cccnc1)N1CCCCC1` registered a melting point of 106 to 108 °C.
`COC(=O)c1cc(C(=O)N[C@@H](Cc2ccccc2)[C@H](O)CNC2(c3cccc(C(F)(F)F)c3)CC2)n2c1CN(C(=O)OC(C)(C)C)CC2` showed a melting point of 136 °C.
As for `COC(=O)Cc1cc(Cl)ccc1O`, the figure is 84 to 85 °C; as for `CC#CCC(CC#CC)(C(=O)O)S(=O)(=O)c1ccc(N2CCC(NC[C@H](O)c3ccc(O)c(NS(C)(=O)=O)c3)CC2)cc1`, 175 to 177 °C; as for `COCCNc1nc(Cc2ccc(OC)c(OC)c2)nc2sc(C#N)c(C)c12`, 94 to 97 °C.
For the compound `Clc1ccc(-n2nc3c(c2Cl)CCCCC3)cc1`, the melting point lay within 59 to 61 °C.
`CC(=O)OC1CSC(Oc2cccc(-c3cccnc3)n2)C(OC(C)=O)C1OC(C)=O` (configuration not stated): the melting point was 141 °C.
`CCOP(=O)(CCN(OCc1ccccc1)S(=O)(=O)c1ccc(C)cc1)OCC` gave a melting point of 78 to 80 °C.
Consider `NC(=O)Nc1ccc(-c2nnc(CSCCOc3ccccc3)o2)cc1`, for which the melting point was greater than 220 °C.
For `Oc1c(CN2CCCC2)cc(Nc2ccnc3ccccc23)cc1CN1CCCC1`, the melting point came to 67 °C.
As for `N#Cc1c2ccccc2nc2ccc(Cl)cc12`, the melting point was 208 °C.
Compound `C[C@H]1C[C@@](O)(c2cccc(Sc3cc4c(cc3F)N(C)C(=O)CC4)c2)CCO1` gave a melting point of 90 to 92 °C.
As for `O=C1Cc2cc(C3=NNC(=O)SC3)ccc2N1`, the figure is greater than 310 °C; as for `Cc1cccc(-c2ccc3c(c2)c(CC(=O)O)cn3Cc2ccc(C(C)(C)C)cc2)c1`, 91 to 92 °C.
Turning to `O=C1c2cccc(Br)c2C(=O)N1CCCn1cncn1`, the melting point lay in the range of 113 to 115 °C.
In the case of `N#Cc1cccc2nc(CCC#Cc3ccccn3)oc12`, the melting point came out at 126 °C.
Regarding `COc1ccccc1NC(=O)Nc1ncnc(Nc2ccccc2-c2ccccc2)n1`, the melting point was 219 °C.
As for `CCCCCCCCCCCCc1nnn(C(CCCCC)C(=O)Nc2c(OC)cc(OC)cc2OC)n1` (configuration not stated), the figure is 152 to 155 °C.
Take `Cc1cn(C2CC(O)C(CO)S2)c(=O)[nH]c1=O` (configuration not stated): the melting point was 213 to 215 °C.
In turn, `Cc1ccc(C2COc3c(C)c(C)c(N)c(C)c32)cc1` (configuration not stated) gave a melting point of 121 to 122 °C.
In turn, `Brc1ccc(N2CCC(Cc3ccccc3)CC2)nc1` had a melting point of 78 °C.
The compound `COc1ccc(N2CCN(C(=S)C3(C)CCc4c(C)c(O)c(C)c(C)c4O3)CC2)cc1` (configuration not stated) displayed a melting point of 120 to 121 °C.
Compound `CC(=O)N1CCC(O)(C(=O)c2cc(F)ccc2F)CC1` had a melting point of 118 to 120 °C.
Compound `CCCCCCCCC=CCCCCCCCCCCCC(=O)NC(=O)CN` registered a melting point of 128 to 130 °C.
On to `N#Cc1cn(COC(CO)CO)c2ncnc(N)c12`, for which the melting point was found to be 195 °C.
Under `CCCCCCCCCCC1(C)OCC(C=Cc2ccc(-c3ccccc3)cc2)OO1` (configuration not stated) stands 86 to 90 °C; under `C/C(=C\c1ccc(CO)cc1)c1ccc2c(c1)C(C)(C)CCC2(C)C`, 123 to 124 °C.
`O=C(c1ccccc1)N1CCOC(CCOS(=O)(=O)c2ccccc2)(c2ccc(F)c(F)c2)C1` (single isomer, unassigned; (+)): the melting point was 82.8 °C.
`C1=CSC(Sc2ccccc2)(c2ccc(Sc3ccccc3)s2)C1` (configuration not stated) came in with a melting point of 110 to 112 °C.
`CCCCCCCCCCCCCC(=O)Nc1ccc(Cl)c(NC2=NN(c3c(Cl)cc(Cl)cc3Cl)C(=O)C2n2ccnc2)c1` (configuration not stated): the melting point is 172 to 174 °C.
With `CC(=O)N(C)CCc1ccc(CCC(=O)O)cc1`, the melting point fell in the range of 133 to 134 °C.
Under `O=[N+]([O-])c1ccc(Oc2cccc3ccccc23)nc1` stands 87.3 to 89.3 °C; under `Cc1cc(C)cc(C(=O)c2c(-c3ccc(OCC(O)CNC(C)C)cc3)oc3ccccc23)c1` (configuration not stated), 154 to 157 °C; under `COc1ccc(C2=NN(CCCCCCCCBr)C(=O)[C@H]3CCCC[C@@H]23)cc1OC` (relative stereo), 58 to 60 °C.
Regarding `N#Cc1ccc(N(Cc2ccc(Br)cc2)n2cnnc2)cc1`, the melting point was 203 °C.
In turn, `O=C1C2=C(NC3(C=N2)OCCO3)c2ccccc21` displayed a melting point of 296 to 298 °C.
In the case of `COc1ccc(NC(C)c2ccccc2)cc1` (configuration not stated), the melting point amounted to 64 °C.
Take `CCCCCNC(=O)[C@@H](Cc1ccc(OCC(=O)O)c(C(=O)O)c1)NC(=O)Cc1ccccc1OC`: the melting point fell in the range of 146 to 148 °C.
On to `CCCCN(CCCC)c1cc(OC)c(C=Cc2ccc(C=O)s2)c(OC)c1`, for which the melting point fell in the range of 105 to 106 °C.
`CCOC(=O)CN1C(=O)C2(COc3cc4c(cc32)OCCO4)c2ccccc21` (configuration not stated) showed a melting point of 58 to 59 °C.
Turning to `CC(C)(C#N)c1cc(Cn2cncn2)cc(-c2ccc(OS(N)(=O)=O)c(Cl)c2)c1`, the melting point is 71 to 74 °C.
In the case of `Nc1nsnc1NCCCOc1cccc(CN2CCCCC2)c1`, the melting point was 137 to 138 °C.
Under `O=C(CC1CCCCC1)N(O)Cc1ccccc1` stands 83 to 85 °C.
Compound `CCCCCCCC(=O)Nc1ccc(OCC(O)CNC(C)C)c(C#N)c1` (configuration not stated) returned a melting point of 116 to 118 °C.
In turn, `COc1ccc(C2(O)CCN(Cc3ccccc3)CC2)cc1OC` displayed a melting point of 112 to 114 °C.
As for `Cc1cc2c(cc1-c1cccc(C=O)c1)C(C)(C)CCC2(C)C`, the figure is 104 to 105 °C.
As for `Cc1cnn(C(C)(C)C(=O)N(C)C)c1-c1ccccc1`, the melting point lay in the range of 136 to 139 °C.
As for `COC(=O)c1cc2cccc(C=O)c2[nH]1`, the figure is 87 °C; as for `O=C(O)[C@H](O)C1CCCCC1`, 124 to 126 °C.
As for `O=C(CCC1CCN(Cc2ccccc2)CC1)c1ccc(Nc2ncnc3c2CCC3O)cc1` (configuration not stated), the figure is 189 to 190 °C; as for `O=C(c1ccccc1)n1c2ccccc2c2cc(O)c(O)cc21`, 260 to 261 °C; as for `CC(C)(C)C(=O)c1c[nH]c2ncc(N3Cc4ccccc4C3=O)nc12`, 287 to 289 °C.
In turn, `CN=C1SC(=NOC(=O)NC)C(C)(C)S1` returned a melting point of 68 to 70 °C.
Under `CC(=O)Nc1ccc(Nc2ccccc2)cc1` stands 169 to 171 °C; under `COC=C(c1cccnc1)C(C)c1ccc(Cl)cc1Cl` (configuration not stated), 67 to 68 °C; under `O=C(c1ccc(Cl)cc1)N1CCCC2=C1CCc1cc(Cl)ccc12`, 189 to 191 °C.
Under `COc1cc(Cn2cnc3c(-c4ccco4)ncnc32)cc(OC)c1OC` stands 195 to 196 °C; under `CN1C(=O)CSC(c2cccc(Cl)c2)c2cc(C(O)(c3ccc(Cl)cc3)c3cncn3C)ccc21` (configuration not stated), 186 °C.
`CC12CC(=O)C3C(C=CC4=CC(=O)CCC43C)C1CCC2=O` (configuration not stated) displayed a melting point of 237 °C.
As to `CC(C)(C)OC(=O)CC(Cc1ccccc1)NC(=O)C1Cc2ccccc2N1S(=O)(=O)c1ccc(-c2cccc(C(F)(F)F)c2)cc1` (configuration not stated), the melting point turned out to be 50 °C.
Under `CCN(C)C(=O)c1cc(-c2ccccc2)oc1-c1ccc(OC)c(OC)c1` stands 74 °C.
Under `CN(CC(=O)OC(C)(C)C)c1nccc(-c2nc(=O)c3ccccc3s2)n1` stands 186 to 188 °C; under `CC(C)(C)c1cc(OCc2ccccc2-c2nnn[nH]2)cc(C(C)(C)C)c1O`, 149 to 150 °C; under `O=S(=O)(c1ccc(F)cc1)N1CCCC1c1ccc(F)c(Cl)c1` (racemic), 116 °C.
In turn, `Cc1ccc(S(=O)(=O)NC(=O)Nc2cc(C)c(S(=O)(=O)C[N+](=O)[O-])c(C)c2)cc1` displayed a melting point of 150 to 155 °C.
In the case of `CC[C@@H](COC)n1cc(Cl)nc(N2CCc3cc(Br)cc(Cl)c32)c1=O`, the melting point is 121 to 122 °C.
Compound `CCN(CC)C(=O)c1cc(OC)cc(OC)c1-c1ccccc1` came in with a melting point of 117 to 118 °C.
Turning to `CCOC(=O)c1cc2cc(OCSN(C)C)ccc2oc1=O`, the melting point was 157 to 160 °C.
